Data as given in publication PMC3649849 (Journal of the American Chemical Society, 2013).

What was measured:
[1] = I = 0.05 (KCl); cited from earlier work
[2] = molecular target: wildtype TbbTIM (triosephosphate isomerase) (Trypanosoma brucei brucei, UniProt P04789); test: Competitive inhibition of TIM-catalyzed isomerization of GAP by phosphoglycolate; type: biochemical; conditions: relative to 14 kcal/mol estimated for GAP
I172A mutant TbbTIM = test: as above; type: biochemical, Trypanosoma brucei brucei; conditions: pH < 6
L232A mutant TbbTIM = L232A mutant TbbTIM (Trypanosoma brucei brucei, UniProt P04789, L232A); test: as above; type: biochemical

O=C(O)COP(=O)(O)O [PGA, Phosphoglycolate]
pKa for ionization of HI^2− to form I^3− [1]: 6.5 | fraction of the total intrinsic transition state binding energy for TIM expressed [2]: ~ 80% | fold lower affinity of the mutant compared with the wildtype enzyme for I^3− (I172A mutant TbbTIM): 100 fold | fold increase in the affinity of the enzyme for I^3− from the L232A mutation (L232A mutant TbbTIM; pH 8.3, relative to wildtype): 20 fold | Ki (L232A mutant TbbTIM; read-out: Ki for inhibition by PGA trianion I^3−, pH 8.3, 25 °C, I = 0.1 (NaCl)): 12 µM
